Data as given in patent US20090258947A1 (priority 2006, published 2009).
Like-named read-outs stand apart in the source and are kept apart here. Marks after values point to notes of the source that are not given here.

Experiments:
[1] = tested on: carrageenan induced paw edema in Wistar rats; settings: for Change in volume (ml) at hour (h): mean ± S.E.M., n = 6
Description: Male Wistar rats (180-250 g) were selected for the study comprising 6 animals in each group for the duration of study of 1 day. The vehicle used was (0.5% CMC in 0.1% Tween®80) and the route of administration was peroral (p.o.). […] One hour later 0.1 ml of 1% carrageenan was administered s.c. to the right hind paw of the rat. The degree of inflammation was measured by using digital plethosmometer (Cat. No. 7140, Ugo Basile, Italy) at 0 (initial), 0.5, 1, 2, 3 and 5 hours (h) post carrageenan injection and the values were recorded. For each hour, at least 2-3 values of the dipped paw were obtained and later averaged. The increase in the paw volume (ml) was calculated by subtracting the values obtained at the n^th from the 0 hour and percentage of activity was also calculated. The changes in paw edema (ml) values were expressed as mean±S.E.M. The treatment values were compared with the control values for a particular hour using One-Way Analysis of Variance followed by Dunnett's multiple comparison test. Values of p<0.05 were considered as statistically significant.

[2] = cited from earlier work
[3] = tested on: 1% acetic acid induced writhing in mice; settings: for No. of writhes: 20-minute session, mean ± S.E.M., N = 6
Description: (§1) Male Swiss mice (18-22 g) were selected for the study comprising 6 animals in each group. The dose volume was 0.1 ml/10 g body weight of mice and the route of administration was per oral (p.o.). Two tests were performed for the purpose. […] One hour later, a 1% acetic acid solution (10 ml/kg, i.p.) was used to produce writhing in mice. The numbers of writhes {constriction of abdomen, turning of trunk (twist), and extension of hind limbs} due to acetic acid were expressed as painful response. The numbers of writhes per animal were counted during a 20-minute session, beginning 3 minutes after the acetic acid injection. In second test i.e. Tail flick test, the mouse tail was placed on the radiant heat produced by the tail flick apparatus and the individual animal tail flick response was noted (a trail of three was carried out). Animals having a latency to tail withdrawal from the radiant heat source (3-5 s) were selected for the study. […] 1, 2, 4, 5 hours later, the tail flick latency were noted and the change in latency and % maximum protective effect (% MPE) was calculated. A cut off time of 10 seconds was used to prevent any injury to the tail. The changes in tail flick latency and the number of writhes are expressed as mean±S.E.M. The treatment values were compared with the control values for a particular hour using One-Way Analysis of Variance followed by Dunnett's or Bonferroni's multiple comparison test. Values of p<0.05 were considered as statistically significant.

[4] = tested on: tail flick latency to radiant heat in mice; settings: for % MPE at hour (h) / Tail flick latency(s) at hour (h): mean ± S.E.M., N = 6
Description: as §1

In the case of `CS(=O)(=O)Nc1ccc([N+](=O)[O-])cc1Oc1ccccc1` [Nimesulide, 4-nitro-2-phenoxymethane-sulfonanilide], the “Percentage of anti-inflammatory activity at hour (h)” value (“Percentage … (h)” for short) ([1]; 1 mg/kg p.o., 0.5 h) is reported as 16%, the “Change in volume (ml) at hour (h)” value ([1]; 1 mg/kg p.o., 0.5 h post carrageenan) is reported as 0.148 ± 0.033 mL and the “Percentage … (h)” value ([1]; 1 mg/kg p.o., 1 h) is reported as −8%. The “Change in volume (ml) at hour (h)” value ([1]; 1 mg/kg p.o., 1 h post carrageenan) was 0.186 ± 0.042 mL, the “Percentage … (h)” value ([1]; 1 mg/kg p.o., 2 h) was −7% and the “Change in volume (ml) at hour (h)” value ([1]; 1 mg/kg p.o., 2 h post carrageenan) was 0.312 ± 0.081 mL. For the same compound, the “Percentage … (h)” value ([1]; 1 mg/kg p.o., 3 h) was 20%, the “Change in volume (ml) at hour (h)” value ([1]; 1 mg/kg p.o., 3 h post carrageenan) was 0.398 ± 0.092 mL and the “Percentage … (h)” value ([1]; 1 mg/kg p.o., 5 h) was 14%. The “Change in volume (ml) at hour (h)” value ([1]; 1 mg/kg p.o., 5 h post carrageenan) was 0.549 ± 0.114 mL, the “Percentage … (h)” value ([1]; 3 mg/kg p.o., 0.5 h) was 22% and the “Change in volume (ml) at hour (h)” value ([1]; 3 mg/kg p.o., 0.5 h post carrageenan) was 0.137 ± 0.038 mL. For the same compound, the “Percentage … (h)” value ([1]; 3 mg/kg p.o., 1 h) was 27%, the “Change in volume (ml) at hour (h)” value ([1]; 3 mg/kg p.o., 1 h post carrageenan) was 0.126 ± 0.028 mL and the “Percentage … (h)” value ([1]; 3 mg/kg p.o., 2 h) was 33%. For the same compound, the “Change in volume (ml) at hour (h)” value ([1]; 3 mg/kg p.o., 2 h post carrageenan) was 0.196 ± 0.056 mL, the “Percentage … (h)” value ([1]; 3 mg/kg p.o., 3 h) was 66* % and the “Change in volume (ml) at hour (h)” value ([1]; 3 mg/kg p.o., 3 h post carrageenan) was 0.168 ± 0.11 mL. For the same compound, the “Percentage … (h)” value ([1]; 3 mg/kg p.o., 5 h) was 44%, the “Change in volume (ml) at hour (h)” value ([1]; 3 mg/kg p.o., 5 h post carrageenan) was 0.354 ± 0.104 mL and the “Percentage … (h)” value ([1]; 10 mg/kg p.o., 0.5 h) was 33%. For the same compound, the “Change in volume (ml) at hour (h)” value ([1]; 10 mg/kg p.o., 0.5 h post carrageenan) was 0.118 ± 0.027 mL, the “Percentage … (h)” value ([1]; 10 mg/kg p.o., 1 h) was 17% and the “Change in volume (ml) at hour (h)” value ([1]; 10 mg/kg p.o., 1 h post carrageenan) was 0.143 ± 0.016 mL. The “Percentage … (h)” value ([1]; 10 mg/kg p.o., 2 h) was 62%, the “Change in volume (ml) at hour (h)” value ([1]; 10 mg/kg p.o., 2 h post carrageenan) was 0.110 ± 0.018 mL and the “Percentage … (h)” value ([1]; 10 mg/kg p.o., 3 h) was 59* %. For the same compound, the “Change in volume (ml) at hour (h)” value ([1]; 10 mg/kg p.o., 3 h post carrageenan) was 0.203 ± 0.032 mL, the “Percentage … (h)” value ([1]; 10 mg/kg p.o., 5 h) was 58** % and the “Change in volume (ml) at hour (h)” value ([1]; 10 mg/kg p.o., 5 h post carrageenan) was 0.264 ± 0.035 mL. The “anti-inflammatory activity over time” value ([1]; 10 mg/kg, all time intervals) was “almost consistent anti-inflammatory activity at all time intervals”, the “Percentage … (h)” value ([1]; 30 mg/kg p.o., 0.5 h) was 28% and the “Change in volume (ml) at hour (h)” value ([1]; 30 mg/kg p.o., 0.5 h post carrageenan) was 0.126 ± 0.027 mL. The “Percentage … (h)” value ([1]; 30 mg/kg p.o., 1 h) was −12%, the “Change in volume (ml) at hour (h)” value ([1]; 30 mg/kg p.o., 1 h post carrageenan) was 0.193 ± 0.024 mL and the “Percentage … (h)” value ([1]; 30 mg/kg p.o., 2 h) was 27%. For the same compound, the “Change in volume (ml) at hour (h)” value ([1]; 30 mg/kg p.o., 2 h post carrageenan) was 0.214 ± 0.028 mL, the “Percentage … (h)” value ([1]; 30 mg/kg p.o., 3 h) was 38% and the “Change in volume (ml) at hour (h)” value ([1]; 30 mg/kg p.o., 3 h post carrageenan) was 0.307 ± 0.020 mL. For the same compound, the “Percentage … (h)” value ([1]; 30 mg/kg p.o., 5 h) was 30%, the “Change in volume (ml) at hour (h)” value ([1]; 30 mg/kg p.o., 5 h post carrageenan) was 0.443 ± 0.035 mL and the “degree of anti-inflammatory activity” value ([1]; 30 mg/kg p.o., from 2-5 hour) was “around 30%”. The “reduction in paw volume (dose dependence)” value ([1]; 1, 3 and 10 mg/kg, p.o., from 2 to 5 hour) was “dose dependant reduction in paw volume”, the “reduction in paw volume compared to control (significance)” value ([1]; 3 and 10 mg/kg at 3 hours and 10 mg/kg at 5 hours, p<0.05) was “statistically significant reduction in paw volume” and the “Time to reach peak concentration (tmax), mean” value ([2]; after 100 mg) was 2.50 h. For the same compound, the “Time to reach peak concentration (tmax), mean” value ([2]; after 200 mg dose) was 3.17 h, the “% protection” value ([3]; 0.03 mg/kg p.o.) was 28% and the No. of writhes ([3]; 0.03 mg/kg p.o.) was 23.17 ± 3.38. The “% protection” value ([3]; 0.1 mg/kg p.o.) was 39%, the No. of writhes ([3]; 0.1 mg/kg p.o.) was 19.67 ± 2.73 and the No. of writhes ([3]; 0.3 mg/kg p.o.) was 15.50 ± 1.88. For the same compound, the “% protection” value ([3]; 1.0 mg/kg p.o.) was 75%, the No. of writhes ([3]; 1.0 mg/kg p.o.) was 8.00 ± 1.15 and the “reduction in number of writhes (dose dependence)” value ([3]; doses 0.03, 0.1, 0.3 and 1 ml/kg, 1% acetic acid) was “dose dependant reduction in number of writhes”. For the same compound, the “reduction in number of writhing (significance)” value ([3]; doses 0.1, 0.3 and 1 mg/kg) was “statistically significant reduction in number of writhing”, the “% MPE at hour (h)” value ([4]; 0.1 mg/kg p.o., 1 h) was 137.0 ± 37.1 % and the “Tail flick latency(s) at hour (h)” value ([4]; 0.1 mg/kg p.o., 1 h) was 3.00 ± 0.58 s. For the same compound, the “% MPE at hour (h)” value ([4]; 0.1 mg/kg p.o., 2 h) was 251.0 ± 59.9 %, the “Tail flick latency(s) at hour (h)” value ([4]; 0.1 mg/kg p.o., 2 h) was 5.50 ± 0.18 s and the “% MPE at hour (h)” value ([4]; 0.1 mg/kg p.o., 3 h) was 279.0 ± 49.4 %. For the same compound, the “Tail flick latency(s) at hour (h)” value ([4]; 0.1 mg/kg p.o., 3 h) was 6.17 ± 0.33 s, the “% MPE at hour (h)” value ([4]; 0.1 mg/kg p.o., 5 h) was 28.0 ± 6.1 % and the “Tail flick latency(s) at hour (h)” value ([4]; 0.1 mg/kg p.o., 5 h) was 1.42 ± 0.35 s. The “% MPE at hour (h)” value ([4]; 0.3 mg/kg p.o., 1 h) was 114.0 ± 16.8 %, the “Tail flick latency(s) at hour (h)” value ([4]; 0.3 mg/kg p.o., 1 h) was 3.17 ± 0.51 s and the “% MPE at hour (h)” value ([4]; 0.3 mg/kg p.o., 2 h) was 193.0 ± 9.5 %. For the same compound, the “Tail flick latency(s) at hour (h)” value ([4]; 0.3 mg/kg p.o., 2 h) was 5.33 ± 0.38 s, the “% MPE at hour (h)” value ([4]; 0.3 mg/kg p.o., 3 h) was 209.0 ± 4.3 % and the “Tail flick latency(s) at hour (h)” value ([4]; 0.3 mg/kg p.o., 3 h) was 5.75 ± 0.21 s. For the same compound, the “% MPE at hour (h)” value ([4]; 0.3 mg/kg p.o., 5 h) was 54.0 ± 6.6 %, the “Tail flick latency(s) at hour (h)” value ([4]; 0.3 mg/kg p.o., 5 h) was 3.08 ± 0.27 s and the “% MPE at hour (h)” value ([4]; 1.0 mg/kg p.o., 1 h) was 112.0 ± 22.5 %. For the same compound, the “Tail flick latency(s) at hour (h)” value ([4]; 1.0 mg/kg p.o., 1 h) was 3.17 ± 0.67 s, the “% MPE at hour (h)” value ([4]; 1.0 mg/kg p.o., 2 h) was 187.0 ± 11.9 % and the “Tail flick latency(s) at hour (h)” value ([4]; 1.0 mg/kg p.o., 2 h) was 5.25 ± 0.25 s. The “% MPE at hour (h)” value ([4]; 1.0 mg/kg p.o., 3 h) was 187.0 ± 12.0 %, the “Tail flick latency(s) at hour (h)” value ([4]; 1.0 mg/kg p.o., 3 h) was 5.25 ± 0.28 s and the “% MPE at hour (h)” value ([4]; 1.0 mg/kg p.o., 5 h) was 38.0 ± 6.1 %. The “Tail flick latency(s) at hour (h)” value ([4]; 1.0 mg/kg p.o., 5 h) was 2.17 ± 0.28 s, the “% MPE at hour (h)” value ([4]; 3.0 mg/kg p.o., 1 h) was 205.0 ± 32.9 % and the “Tail flick latency(s) at hour (h)” value ([4]; 3.0 mg/kg p.o., 1 h) was 5.17 ± 0.73 s. For the same compound, the “% MPE at hour (h)” value ([4]; 3.0 mg/kg p.o., 2 h) was 250.0 ± 21.9 %, the “Tail flick latency(s) at hour (h)” value ([4]; 3.0 mg/kg p.o., 2 h) was 6.33 ± 0.33 s and the “% MPE at hour (h)” value ([4]; 3.0 mg/kg p.o., 3 h) was 248.0 ± 20.4 %. The “Tail flick latency(s) at hour (h)” value ([4]; 3.0 mg/kg p.o., 3 h) was 6.25 ± 0.21 s, the “% MPE at hour (h)” value ([4]; 3.0 mg/kg p.o., 5 h) was 70.0 ± 9.5 % and the “Tail flick latency(s) at hour (h)” value ([4]; 3.0 mg/kg p.o., 5 h) was 5.33 ± 0.85 s. For the same compound, the “tail flick latency to radiant heat (dose dependence)” value ([4]; 0.1, 0.3, 1 and 3 mg/kg, 1, 2, 3 and 5 hours) was “non dose dependant reduction in tail flick latency” and the “percentage of maximum protection (significance)” value ([4]; all time intervals and all dose levels) was “statistically significant at all time intervals and at all dose levels”.
